Test results: patent US20260308536A1, “NOVEL URICASE VARIANTS AND METHODS OF USE THEREOF” (priority 2023, published 2026)
Where a chain is given by its changes, count along the chain named.

Experiments:
Assay type in all cases: biochemical
[1] = biological target: T1, chimeric pig-baboon uricase variant 4 (dURC4), F75Q/K76N/K79N/T83Q/E90H/F96H/I100E/Y105D/V119K/K155N/F172Y/L260N/I262T, SEQ ID NO: 4 (Sus scrofa, UniProt P16164, E96H/F102H/F178Y/F81Q/I106E/I268T/K161N/K82N/K85N/L266N/R291K/S46T/T301S/T89Q/V125K/Y111D); assay: Michaelis Menten kinetics of uric acid conversion, dURC4; conditions: role: substrate; purified enzyme, non-linear regression; Table 3
T1 construct: purified
T1 sequence (P16164 with tags, fused parts or gaps S46T/F81Q/K82N/K85N/T89Q/E96H/F102H/I106E/Y111D/V125K/K161N/F178Y/L266N/I268T/R291K/T301S): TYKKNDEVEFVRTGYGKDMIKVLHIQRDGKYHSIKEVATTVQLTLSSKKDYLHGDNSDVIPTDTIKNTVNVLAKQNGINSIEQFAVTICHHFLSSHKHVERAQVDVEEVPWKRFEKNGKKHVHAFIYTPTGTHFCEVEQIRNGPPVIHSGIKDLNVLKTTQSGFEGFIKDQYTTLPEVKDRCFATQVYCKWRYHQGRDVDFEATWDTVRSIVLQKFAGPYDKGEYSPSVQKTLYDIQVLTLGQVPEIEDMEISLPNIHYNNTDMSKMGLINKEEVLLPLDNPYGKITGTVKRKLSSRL
Description: (§1) Variants 1 (dURC1) and 3 (dURC3) were identified as possible lead candidates. Besides the mutations according to the library design, i.e., the designed mutations of F75Q; K79N; T83Q; E90H; F96H; I100E; Y105D; V119K; F172Y; L260N; and I262T, dURC3 comprised an off-position amino acid mutation K76N. An off-position amino acid mutation is defined as having a non-designed amino acid at a non-target site. […] Specifically, in the dURC1 backbone, the following mutations were tested separately: L154T; K155D; K155N; L157H; L157T; T159E; T159Q; and S162D; and in the dURC3 backbone, the K155N mutation was tested. […] The characteristics, including yield, activity, melting temperature measured by DSF, temperature at which 50% of normal activity was lost after heating measured by heat stress activity assay, Michaelis-Menten kinetics parameters, of variants 1, 2, 3, and 4 (i.e., dURC1, dURC2, dURC3 and dURC4), as well as the wild type chimeric pig-baboon uricase, are summarized in Table 2. The amino acid sequences of dURC1, dURC2, dURC3 and dURC4 are shown as SEQ ID NO: 1, 2, 3, and 4, respectively.
(§2) The activity of the purified enzymes was quantified by Michaelis Menten kinetic analysis, using the solution phase microplate assay across a range of substrate concentrations (FIG. 4B).

[2] = biological target: T2, chimeric pig-baboon uricase, wild type, SEQ ID NO: 5 (Sus scrofa, UniProt P16164, R291K/S46T/T301S); assay: Michaelis Menten kinetics of uric acid conversion, wild type chimeric pig-baboon uricase; conditions: role: substrate; purified enzyme, non-linear regression; Table 3
T2 construct: His6 (C); made in house; host or cells: E. coli
T2 sequence (P16164 with tags, fused parts or gaps S46T/R291K/T301S): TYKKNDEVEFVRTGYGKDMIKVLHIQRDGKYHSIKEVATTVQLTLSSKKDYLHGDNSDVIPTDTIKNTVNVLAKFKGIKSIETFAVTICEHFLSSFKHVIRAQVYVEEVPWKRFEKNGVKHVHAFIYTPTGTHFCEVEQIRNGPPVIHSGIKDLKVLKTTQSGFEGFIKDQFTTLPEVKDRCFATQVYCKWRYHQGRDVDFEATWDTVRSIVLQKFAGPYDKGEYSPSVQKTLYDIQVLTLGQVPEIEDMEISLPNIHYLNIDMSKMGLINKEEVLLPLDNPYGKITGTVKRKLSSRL
Text: The monomeric form of the wild type chimeric pig-baboon uricase comprises the amino acid sequence of SEQ ID NO:5, where threonine is residue #1. The specified mutations in the chimeric pig-baboon uricase variants of this example are indexed to threonine as residue #1, as in SEQ ID NO:5. […] The expression vector pET-26b(+) encodes a His tag containing 6 histidine residues at the C-terminus of the inserted uricase gene.
as §2

[3] = biological target: T3, chimeric pig-baboon uricase variant 2 (dURC2), F75Q/K79E/T83Q/E90H/F96H/I100H/Y105D/V119K/Y127H/K155N/F172Y/L260N, SEQ ID NO: 2 (Sus scrofa, UniProt P16164, E96H/F102H/F178Y/F81Q/I106H/K161N/K85E/L266N/R291K/S46T/T301S/T89Q/V125K/Y111D/Y133H); assay: Michaelis Menten kinetics of uric acid conversion, dURC2; conditions: role: substrate; purified enzyme, non-linear regression; Table 3
T3 construct: purified
T3 sequence (P16164 with tags, fused parts or gaps S46T/F81Q/K85E/T89Q/E96H/F102H/I106H/Y111D/V125K/Y133H/K161N/F178Y/L266N/R291K/T301S): T1 sequence (P16164 with tags, fused parts or gaps S46T/F81Q/K82N/K85N/T89Q/E96H/F102H/I106E/Y111D/V125K/K161N/F178Y/L266N/I268T/R291K/T301S) with N76K, N79E, E100H, Y127H, T262I
Description: as §1, §2

[4] = biological target: T4, PEGylated chimeric pig-baboon uricase, wild type, SEQ ID NO: 5 (Sus scrofa, UniProt P16164, R291K/S46T/T301S); assay: Michaelis Menten kinetics of uric acid conversion, PEGylated wild type chimeric pig-baboon uricase; conditions: role: substrate, Table 4
T4 construct: His6 (C); made in house; host or cells: E. coli
T4 sequence (P16164 with tags, fused parts or gaps S46T/R291K/T301S limits assumed): T2 sequence (P16164 with tags, fused parts or gaps S46T/R291K/T301S)
Description: (§3) PEGylation of the wild type chimeric pig-baboon uricase or its variants was performed by the following procedure: • (1) adding 50 fold molar excess methoxy-PEG-(CH2)5COO—NHS of 10 kDa in molecular weight (Chemical Name: Poly(oxy-1,2-ethanediyl), α-methyl-ω-{2-[(2,5-dioxo-1-pyrrolidinyl)oxy]-6-oxohexyloxy}; NOF America Corporation, Cat #SUNBRIGHT ME-100HS) to purified uricase protein on ice and incubating with stirring for one hour; • (2) verifying radius by DLS (14-15 nm radius ~=wild type); • (3) concentrating PEGylated protein using stirred cell with 50 kDa filter to 15 ml; • (4) loading the concentrated PEGylated protein onto a SUPERDEX 200 HILOAD 26/600 column and eluting with PBS; • (5) pooling fractions identified as being mono-disperse by DLS; • (6) concentrating the pooled fractions using a stirred cell with 50 kDa filter to 5 mg/ml.
(§4) dURC3 and the wild type chimeric pig-baboon uricase were successfully PEGylated, with an average of about 10 PEG molecules conjugated to a uricase monomer, based on SDS-PAGE and size exclusion chromatography with multi-angle static light scattering (SEC-MALS) analysis. The activity quantified by Michaelis Menten kinetic analysis, as well as the melting temperature quantified by differential scanning fluorimetry, of PEGylated dURC3 and PEGylated wild type chimeric pig-baboon uricase was determined using the methods described in Example 1.

[5] = biological target: T5, chimeric pig-baboon uricase variant 1 (dURC1), F75Q/K79E/T83Q/E90H/F96H/I100H/Y105D/V119K/Y127H/F172Y/L260N, SEQ ID NO: 1 (Sus scrofa, UniProt P16164, E96H/F102H/F178Y/F81Q/I106H/K85E/L266N/R291K/S46T/T301S/T89Q/V125K/Y111D/Y133H); assay: Michaelis Menten kinetics of uric acid conversion, dURC1; conditions: role: substrate; purified enzyme, non-linear regression; Table 3
T5 construct: purified
T5 sequence (P16164 with tags, fused parts or gaps S46T/F81Q/K85E/T89Q/E96H/F102H/I106H/Y111D/V125K/Y133H/F178Y/L266N/R291K/T301S): T1 sequence (P16164 with tags, fused parts or gaps S46T/F81Q/K82N/K85N/T89Q/E96H/F102H/I106E/Y111D/V125K/K161N/F178Y/L266N/I268T/R291K/T301S) with N76K, N79E, E100H, Y127H, N155K, T262I
Description: as §1, §2

[6] = biological target: T6, chimeric pig-baboon uricase variant 3 (dURC3), F75Q/K76N/K79N/T83Q/E90H/F96H/I100E/Y105D/V119K/F172Y/L260N/I262T, SEQ ID NO: 3 (Sus scrofa, UniProt P16164, E96H/F102H/F178Y/F81Q/I106E/I268T/K82N/K85N/L266N/R291K/S46T/T301S/T89Q/V125K/Y111D); assay: Michaelis Menten kinetics of uric acid conversion, dURC3; conditions: role: substrate
T6 construct: purified
T6 sequence (P16164 with tags, fused parts or gaps S46T/F81Q/K82N/K85N/T89Q/E96H/F102H/I106E/Y111D/V125K/F178Y/L266N/I268T/R291K/T301S): T1 sequence (P16164 with tags, fused parts or gaps S46T/F81Q/K82N/K85N/T89Q/E96H/F102H/I106E/Y111D/V125K/K161N/F178Y/L266N/I268T/R291K/T301S) with N155K
Description: An off-position amino acid mutation is defined as having a non-designed amino acid at a non-target site. […] Specifically, in the dURC1 backbone, the following mutations were tested separately: L154T; K155D; K155N; L157H; L157T; T159E; T159Q; and S162D; and in the dURC3 backbone, the K155N mutation was tested. […] The amino acid sequences of dURC1, dURC2, dURC3 and dURC4 are shown as SEQ ID NO: 1, 2, 3, and 4, respectively.
as §2

[7] = biological target: T7, PEGylated chimeric pig-baboon uricase variant dURC3, F75Q/K76N/K79N/T83Q/E90H/F96H/I100E/Y105D/V119K/F172Y/L260N/I262T, SEQ ID NO: 3 (Sus scrofa, UniProt P16164, E96H/F102H/F178Y/F81Q/I106E/I268T/K82N/K85N/L266N/R291K/S46T/T301S/T89Q/V125K/Y111D); assay: Michaelis Menten kinetics of uric acid conversion, PEGylated dURC3; conditions: role: substrate, Table 4
T7 construct: purified, PEGylated with 10 kDa mPEG-NHS, about 10 PEG per monomer
T7 sequence (P16164 with tags, fused parts or gaps S46T/F81Q/K82N/K85N/T89Q/E96H/F102H/I106E/Y111D/V125K/F178Y/L266N/I268T/R291K/T301S): T1 sequence (P16164 with tags, fused parts or gaps S46T/F81Q/K82N/K85N/T89Q/E96H/F102H/I106E/Y111D/V125K/K161N/F178Y/L266N/I268T/R291K/T301S) with N155K
Description: as §3, §4

Apparent kcat [1]: 28.0 ± 0.5 arbitrary units | Apparent kcat [2]: 30 ± 1 arbitrary units | Apparent kcat [3]: 34 ± 1 arbitrary units | Vmax [4]: 170 Δabs/min | Apparent kcat [5]: 43 ± 2 arbitrary units | higher apparent kcat compared to the wild type ([6]; dURC3 relative to wild type chimeric pig-baboon uricase): 33% | Apparent kcat ([6]; purified enzyme, non-linear regression, Table 3): 40 ± 2 arbitrary units | Vmax [7]: 67 Δabs/min
SMILES: O=c1[nH]c(=O)c2[nH]c(=O)[nH]c2[nH]1 [uric acid]
